# pIC50: −log10 of the molar value.
# Biological target: H1047R PIK3CA enzyme (Homo sapiens, UniProt P42336, H1047R)
# Assay: ADP-Glo Biochemical PIK3CA Kinase Assay
# H1047R PIK3CA enzyme, sequence (P42336 whole entry H1047R): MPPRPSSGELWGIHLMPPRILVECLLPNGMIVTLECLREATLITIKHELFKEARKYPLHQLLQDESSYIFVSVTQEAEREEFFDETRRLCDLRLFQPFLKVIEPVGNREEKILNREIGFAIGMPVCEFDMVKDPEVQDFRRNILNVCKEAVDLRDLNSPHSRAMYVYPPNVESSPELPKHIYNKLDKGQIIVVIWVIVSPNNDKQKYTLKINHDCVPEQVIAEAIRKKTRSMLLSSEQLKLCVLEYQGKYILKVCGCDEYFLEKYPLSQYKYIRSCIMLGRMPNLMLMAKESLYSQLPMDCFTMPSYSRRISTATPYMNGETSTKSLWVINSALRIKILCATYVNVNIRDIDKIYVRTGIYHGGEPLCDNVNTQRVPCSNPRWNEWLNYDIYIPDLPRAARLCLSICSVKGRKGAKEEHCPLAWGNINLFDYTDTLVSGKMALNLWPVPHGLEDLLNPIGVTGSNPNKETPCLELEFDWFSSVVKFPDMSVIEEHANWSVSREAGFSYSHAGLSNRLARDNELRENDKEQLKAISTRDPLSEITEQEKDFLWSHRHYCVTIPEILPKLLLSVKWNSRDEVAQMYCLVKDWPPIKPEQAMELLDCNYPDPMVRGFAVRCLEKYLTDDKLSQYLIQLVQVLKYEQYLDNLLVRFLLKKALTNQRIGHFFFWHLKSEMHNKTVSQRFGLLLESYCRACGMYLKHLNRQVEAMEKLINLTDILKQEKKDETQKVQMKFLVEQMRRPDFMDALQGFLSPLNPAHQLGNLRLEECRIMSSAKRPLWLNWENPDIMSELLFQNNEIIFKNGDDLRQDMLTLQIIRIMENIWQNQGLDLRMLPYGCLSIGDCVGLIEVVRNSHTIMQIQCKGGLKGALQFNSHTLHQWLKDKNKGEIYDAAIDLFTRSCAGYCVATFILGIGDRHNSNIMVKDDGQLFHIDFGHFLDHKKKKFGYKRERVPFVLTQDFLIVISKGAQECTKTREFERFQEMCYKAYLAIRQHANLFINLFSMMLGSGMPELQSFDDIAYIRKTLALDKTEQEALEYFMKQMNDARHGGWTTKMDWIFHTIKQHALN
# H1047R PIK3CA enzyme, sequence (P27986 whole entry partner): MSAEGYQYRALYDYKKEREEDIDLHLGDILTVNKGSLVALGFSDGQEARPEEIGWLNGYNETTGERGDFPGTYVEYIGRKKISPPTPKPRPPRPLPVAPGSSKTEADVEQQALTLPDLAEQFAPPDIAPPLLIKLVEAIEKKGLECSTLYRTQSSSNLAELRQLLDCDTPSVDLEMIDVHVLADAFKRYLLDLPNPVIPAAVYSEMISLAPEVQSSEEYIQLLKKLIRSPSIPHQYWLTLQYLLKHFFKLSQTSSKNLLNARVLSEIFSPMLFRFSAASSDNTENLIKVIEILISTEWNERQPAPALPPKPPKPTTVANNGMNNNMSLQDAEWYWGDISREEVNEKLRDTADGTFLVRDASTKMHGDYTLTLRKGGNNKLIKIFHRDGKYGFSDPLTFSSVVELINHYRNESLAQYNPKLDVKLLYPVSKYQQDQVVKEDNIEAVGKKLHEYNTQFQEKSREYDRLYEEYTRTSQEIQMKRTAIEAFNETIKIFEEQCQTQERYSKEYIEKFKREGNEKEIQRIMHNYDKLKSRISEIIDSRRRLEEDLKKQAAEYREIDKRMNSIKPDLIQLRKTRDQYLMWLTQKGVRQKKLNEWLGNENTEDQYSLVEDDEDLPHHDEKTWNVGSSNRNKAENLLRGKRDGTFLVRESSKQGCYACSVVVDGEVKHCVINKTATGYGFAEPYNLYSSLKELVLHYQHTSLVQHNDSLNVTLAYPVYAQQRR
row,pIC50,Compound
1,≥ 7.00,CC(C)(O)c1cc(NC(=O)c2cc(F)cc(C(F)(F)F)c2)c2c(c1)C(=O)NC2c1ccccc1C(F)F (centres unmarked) [Compound I-355]
2,6.00 to 6.30,CC(C)(C#N)n1cc(-c2cc(NC(=O)c3cc(F)cc(C(F)(F)F)c3)c3c(c2)C(=O)N[C@@H]3c2cc(F)ccc2Cl)cn1 [Compound I-1660]
3,4.00 to 5.00,"O=C1NC(c2cc(F)ccc2Cl)c2c(NC(=O)C3CCCN(CC(F)(F)F)C3)cc(-c3ccc4ncnn4c3)cc21 (single isomer, unassigned) [Compound I-1964]"
4,4.00 to 5.00,"O=C1N[C@H](c2cc(F)ccc2Cl)c2c(NC(=O)[C@@H]3C[C@@H](O)C[C@H](C(F)(F)F)C3)cccc21 (single isomer, unassigned) [Compound I-2176]"
5,5.00 to 6.00,O=C1NC(c2cc(F)ccc2Cl)c2c(NC(=O)c3cccc4cccnc34)cc(Br)cc21 (centres unmarked) [Compound I-602]
6,≥ 7.00,O=C(Nc1cc(C2CCOC2)cc2c1C(c1cc(F)ccc1Cl)NC2=O)c1cc(F)cc(C(F)(F)F)c1 (racemic) [Compound I-778]
7,≥ 7.00,Cc1ccccc1C1NC(=O)c2c(CCO)ccc(NC(=O)c3csc4ccccc34)c21 (centres unmarked) [Compound I-119]
8,≥ 7.00,O=C(Nc1cc(Cc2ccc3c(c2)CNC3=O)cc2c1[C@H](c1cc(F)ccc1Cl)NC2=O)c1cc(F)cc(C(F)(F)F)c1 (stereo in doubt) [Compound I-1612]
9,4.00 to 5.00,O=C(COc1ccccc1)Nc1cc(-c2ccc3ncnn3c2)cc2c1C(c1cc(F)ccc1Cl)NC2=O (centres unmarked) [Compound I-1688]
10,4.00 to 5.00,N#CC1(C(=O)Nc2cc(-c3ccc4ncnn4c3)cc3c2C(c2cc(F)ccc2Cl)NC3=O)CCCC1 (centres unmarked) [Compound I-1899]
11,6.00 to 6.30,O=C1NC(c2cc(F)ccc2Cl)c2c(NC(=S)c3cc(F)cc(C(F)(F)F)c3)cccc21 (centres unmarked) [Compound I-753]
12,5.00 to 6.00,O=C1NC(c2cc(F)ccc2Cl)c2c(NC(=O)c3cc(F)cc4ccc(=O)[nH]c34)cc(Br)cc21 (centres unmarked) [Compound I-1424]
13,4.00 to 5.00,"O=C1N[C@H](c2cc(F)ccc2Cl)c2c(NC(=O)[C@@H]3CCC[C@H](OC(F)(F)F)C3)cccc21 (single isomer, unassigned) [Compound I-2213]"
14,4.00 to 5.00,"O=C(Nc1cc(-c2cnn(C3CC3)c2)cc2c1[C@@H](c1cc(F)ccc1Cl)NC2=O)c1cc(F)cc(C(F)(F)F)c1 (single isomer, unassigned) [Compound I-1021]"
15,5.00 to 6.00,O=C(Nc1cc(-c2cn[nH]c2)nc2c1[C@@H](c1cc(F)ccc1Cl)NC2=O)c1cc(F)cc(C(F)(F)F)c1 [Compound I-193]
16,≥ 7.00,O=C(Nc1cc(-c2ccc3nccn3c2)cc2c1[C@H](c1cc(F)ccc1Cl)NC2=O)c1cc(F)cc(C(F)(F)F)c1 [Compound I-827]
17,≥ 7.00,N#Cc1nc2cc(-c3cc(NC(=O)c4cc(F)cc(C(F)(F)F)c4)c4c(c3)C(=O)NC4c3cc(F)ccc3Cl)ccn2n1 (centres unmarked) [Compound I-1741]
18,4.00 to 5.00,O=C(Nc1cccc2c1C(c1cc(F)ccc1Cl)NC2=O)c1ncc(Br)s1 (centres unmarked) [Compound I-2112]
19,≥ 7.00,CC(O)(c1cc(NC(=O)c2cc(F)cc(C(F)(F)F)c2)c2c(c1)C(=O)NC2c1cc(F)ccc1Cl)c1ccccn1 (centres unmarked) [Compound I-1188]
20,4.00 to 5.00,O=C(Nc1cccc2c1C(c1cccc(B(O)O)c1)NC2=O)c1cc(F)cc(C(F)(F)F)c1 (centres unmarked) [Compound I-717]
21,6.00 to 6.30,"O=C1N[C@@H](c2cc(F)ccc2Cl)c2c(NC(=O)[C@H]3C[C@H](O)C[C@@H](C(F)(F)F)C3)cc(Br)cc21 (single isomer, unassigned) [Compound I-2179]"

row,pIC50,Compound
1,4.00 to 5.00,Cc1ncc(-c2cc(NC(=O)c3cc(F)cc(Cl)c3)c3c(c2)C(=O)N[C@@H]3c2cc(F)ccc2Cl)cn1 [Compound I-895]
2,4.00 to 5.00,O=C(Nc1cccc2c1C(C1CCCNC1)NC2=O)c1cc(F)cc(C(F)(F)F)c1 (centres unmarked) [Compound I-1747]
3,4.00 to 5.00,O=C1NC(c2cc(F)ccc2Cl)c2c(NC(=O)C3(O)CCCC3)cc(-c3ccc4ncnn4c3)cc21 (centres unmarked) [Compound I-1813]
4,≥ 7.00,"N#CC[C@@H](O)c1cc(NC(=O)c2cc(F)cc(C(F)(F)F)c2)c2c(c1)C(=O)N[C@H]2c1cc(F)ccc1Cl (single isomer, unassigned) [Compound I-1393]"
5,5.00 to 6.00,"O=C1N[C@@H](c2cc(F)ccc2Cl)c2c(NC(=O)N3C[C@](O)(C(F)(F)F)c4cc(F)ccc43)cc(-n3ccccc3=O)cc21 (single isomer, unassigned) [Compound I-2529]"
6,4.00 to 5.00,O=C(Nc1cc(-c2ccc3ncnn3c2)nc2c1C(C1CCOCC1)NC2=O)c1cc(F)cc(C(F)(F)F)c1 (centres unmarked) [Compound I-1705]
7,5.00 to 6.00,Cc1ccccc1C1NS(=O)(=O)c2cccc(NC(=O)c3cc(F)cc(C(F)(F)F)c3)c21 (centres unmarked) [Compound I-535]
8,6.30 to 7.00,CC(=O)NCCOc1cc(NC(=O)c2cc(F)cc(C(F)(F)F)c2)c2c(c1)C(=O)NC2c1cc(F)ccc1Cl (racemic) [Compound I-1322]
9,6.30 to 7.00,"O=C1NC[C@H](c2cc(NC(=O)c3cc(F)cc(C(F)(F)F)c3)c3c(c2)C(=O)N[C@@H]3c2cc(F)ccc2Cl)O1 (single isomer, unassigned) [Compound I-1558]"
10,≥ 7.00,O=C(Nc1cc(NC(=O)C2CCO2)cc2c1C(c1cc(F)ccc1Cl)NC2=O)c1cc(F)cc(C(F)(F)F)c1 (centres unmarked) [Compound I-361]
11,6.00 to 6.30,"CCC[C@@]1(O)CN(C(=O)Nc2cccc3c2[C@@H](c2cc(F)ccc2Cl)NC3=O)c2ccc(F)cc21 (single isomer, unassigned) [Compound I-2457]"
12,6.30 to 7.00,CC1(C)COC(Nc2cc(NC(=O)c3cc(F)cc(C(F)(F)F)c3)c3c(c2)C(=O)NC3c2cc(F)ccc2Cl)=N1 (centres unmarked) [Compound I-2358]
13,4.00 to 5.00,O=C1NC(c2cc(F)ccc2Cl)c2c(NC(=O)N3CCNC(C(F)(F)F)C3)cccc21 (centres unmarked) [Compound I-2222]
14,5.00 to 6.00,Cc1ccccc1C1NC(=O)c2cccc(NC(=O)c3cc(F)cc(OC(F)F)c3)c21 (centres unmarked) [Compound I-59]
15,4.00 to 5.00,Cc1ccccc1C(=O)Nc1cc(Br)cc2c1C(c1cc(F)ccc1Cl)NC2=O (centres unmarked) [Compound I-464]
16,6.30 to 7.00,CC(C)(O)c1cc(NC(=O)c2cc(F)cc(C(F)(F)F)c2)c2c(n1)C(=O)N[C@H]2c1cc(F)ccc1Cl [Compound I-272]
17,≥ 7.00,O=C(Nc1cc(-c2ccn3ncnc3c2)cc2c1[C@H](c1cc(F)ccc1Cl)NC2=O)c1cc(F)cc(C(F)(F)F)c1 (stereo in doubt) [Compound I-1597]
18,≥ 7.00,N#Cc1cnc2cnc(-c3cc(NC(=O)c4cc(F)cc(C(F)(F)F)c4)c4c(c3)C(=O)NC4c3cc(F)ccc3Cl)cn12 (centres unmarked) [Compound I-1767]
19,4.00 to 5.00,O=C(Nc1cccc2c1C(c1ccc3cn[nH]c3c1)NC2=O)c1cc(F)cc(C(F)(F)F)c1 (centres unmarked) [Compound I-844]
20,≥ 7.00,Nc1ncncc1-c1cc(NC(=O)c2cc(F)cc(C(F)(F)F)c2)c2c(c1)C(=O)NC2c1cc(F)ccc1Cl (centres unmarked) [Compound I-1106]
21,5.00 to 6.00,"Cc1nccn1-c1cc(NC(=O)N2C[C@@](O)(C(F)(F)F)c3cc(F)ccc32)c2c(c1)C(=O)N[C@H]2c1cc(F)ccc1Cl (single isomer, unassigned) [Compound I-2663]"

row,pIC50,Compound
1,4.00 to 5.00,O=C1NC(c2cc(F)ccc2Cl)c2c(NC(=O)c3cccn4ccnc34)cc(Br)cc21 (centres unmarked) [Compound I-562]
2,5.00 to 6.00,Nc1ccc(C(=O)Nc2cc(Br)cc3c2C(c2cc(F)ccc2Cl)NC3=O)cc1C(F)(F)F (centres unmarked) [Compound I-719]
3,4.00 to 5.00,O=C1NC(c2cc(F)ccc2Cl)c2c(NC(=O)C3COC4CCCCC43)cccc21 (centres unmarked) [Compound I-2302]
4,≥ 7.00,O=C(Nc1cc(-c2ccnn2CCO)cc2c1C(c1cc(F)ccc1Cl)NC2=O)c1cc(F)cc(C(F)(F)F)c1 (centres unmarked) [Compound I-1340]
5,6.30 to 7.00,O=C(Nc1cccc2c1C(c1ccccc1C1CC1)NC2=O)c1cc(F)cc(C(F)(F)F)c1 (centres unmarked) [Compound I-925]
6,≥ 7.00,Cc1cnc2ccc(-c3cc(NC(=O)c4cc(F)cc(C(F)(F)F)c4)c4c(c3)C(=O)NC4c3cc(F)ccc3Cl)nn12 (centres unmarked) [Compound I-1190]
7,≥ 7.00,"N#Cc1cc(NC(=O)c2cc(F)cc(C(F)(F)F)c2)c2c(c1)C(=O)N[C@H]2c1cc(F)ccc1Cl (single isomer, unassigned) [Compound I-771]"
8,5.00 to 6.00,"CC(C)(C#N)n1cc(-c2cc(NC(=O)N3C[C@@](O)(C(F)(F)F)c4cc(F)ccc43)c3c(c2)C(=O)N[C@H]3c2cc(F)ccc2Cl)cn1 (single isomer, unassigned) [Compound I-2612]"
9,4.00 to 5.00,O=C1NC(c2cc(F)ccc2Cl)c2c(NC(=O)c3[nH]nnc3CC(F)(F)F)cccc21 (centres unmarked) [Compound I-2194]
10,4.00 to 5.00,CN1CCCC[C@H]1[C@@H]1NC(=O)c2cccc(NC(=O)c3cc(F)cc(C(F)(F)F)c3)c21 (racemic) [Compound I-1733]
11,6.30 to 7.00,O=C(Nc1cc(Oc2ccccn2)cc2c1C(c1cc(F)ccc1Cl)NC2=O)c1cc(F)cc(C(F)(F)F)c1 (centres unmarked) [Compound I-1077]
12,5.00 to 6.00,"CNc1cc(NC(=O)N2C[C@](O)(C(F)(F)F)c3cc(F)ccc32)c2c(c1)C(=O)N[C@H]2c1cc(F)ccc1Cl (single isomer, unassigned) [Compound I-2643]"
13,6.30 to 7.00,Cn1cc(-c2cc(NC(=O)c3nsc4ccccc34)c3c(n2)C(=O)NC3c2ccccc2Cl)cn1 (centres unmarked) [Compound I-108]
14,≥ 7.00,O=C(Nc1cc(-c2ccc3ncnn3c2)cc2c1C(c1cc(F)ccc1Cl)NC2=O)c1cc(F)cc(C(F)(F)F)c1 (centres unmarked) [Compound I-824]
15,5.00 to 6.00,Cn1cc(-c2cc(NC(=O)c3cc(F)cc(C(F)(F)F)c3)c3c(n2)C(=O)N[C@@H]3c2cc(F)ccc2Cl)ccc1=O [Compound I-587]
16,4.00 to 5.00,O=C1NC(c2cc(F)ccc2Cl)c2c(NC(=O)N3CCCCCC3)cc(Br)cc21 (centres unmarked) [Compound I-577]
17,5.00 to 6.00,O=C(Nc1cccc2c1C(C1CCCCC1)NC2=O)c1cc(F)cc(C(F)(F)F)c1 (centres unmarked) [Compound I-1611]
18,≥ 7.00,O=C(Nc1cccc2c1C(c1cc(Br)ccc1Cl)NC2=O)c1cc(F)cc(C(F)(F)F)c1 (centres unmarked) [Compound I-446]
19,≥ 7.00,O=C(Nc1cc(OCc2cncnc2)cc2c1C(c1cc(F)ccc1Cl)NC2=O)c1cc(F)cc(C(F)(F)F)c1 (centres unmarked) [Compound I-1735]

row,Compound,pIC50
1,"O=C(Nc1cc(-c2cnn(-c3ncccn3)c2)cc2c1C(c1cc(F)ccc1Cl)NC2=O)c1cc(F)cc(C(F)(F)F)c1 (single isomer, unassigned) [Compound I-1555]",≥ 7.00

# Reference: US12581252B2, “Substituted pyrrolo[3,4-b]pyridines as PI3K-α inhibitors” (Relay Therapeutics, Inc., priority 2020, dated 2026)
